Measurements published in patent publication US6197225A, “Chromene compound” (Tokuyama Corporation, priority 1997, dated 2001).

Tests used:
[1] = Aging promotion testing: sunlight 30 min / fading one hour cycles, 10 days (durability, coloring degree); type: physicochemical; conditions: single chromene compound in polymer, 10 days aging, Table 5; for Change in the coloring degree ΔYI: YI(10)-YI(0)
Protocol: In order to promote the aging, furthermore, the following testing was conducted. That is, the obtained photochromic polymer was irradiated with sunlight for 30 minutes to develop color, and its color was permitted to fade for one hour in the light of a fluorescent lamp. This cycle was repeated three times a day for a total of 10 days.
The photochromic properties before and after aged were evaluated by evaluating the color densities before and after aged. The initial color density (T0) and the color density (T30) ten days after the aging promotion testing were measured, and the durability was expressed as described below.
Furthermore, the coloring degrees of before developing color were measured before and after aged by using a color difference meter (SM-4) manufactured by Suga Shikenki Co.
7 Coloring degree before being aged=YI(0).
8 Change in the coloring degree (ΔYI)=YI(10)-YI(0)
YI(10): coloring degree after aged
(§1) Photochromic polymers were prepared in the same manner as in Example 42 but using the chromene compounds obtained in Examples 2 to 41, and their maximum absorption wavelengths, color densities, fading rates, changes in the coloring degrees and durabilitys were measured.
(§2) For the purpose of comparison, furthermore, the compounds represented by the following formulas (a), (b), (c), (d), (e) and (f) were measured for their maximum absorption wavelengths, color densities, fading rates, changes in the coloring degrees and durabilitys.
(§3) The procedure was carried out in the same manner as in Example 42 but using 100 parts of AC1 and 133 parts of BC1, the sum of the amounts of AC1 and BC1 being 0.04% by weight. The obtained photochromic polymer was measured for its maximum absorption wavelength, initial color, color density, color-developing sensitivity, fading rate, durability and change in the coloring degree.
(§4) The procedure was carried out in the same manner as in Example 83 but using the known chromene compounds shown in Table 6 instead of the chromene compound used in Example 83. […]
The obtained polymer (2 mm thick) was caused to develop color outdoors, and tones of the developed color were observed by eyes 30 seconds and 15 minutes after it was brought to the outdoors, and uniformity in the step of developing color was evaluated. […] Furthermore, the aging promoting testing was conducted in the same manner as in Example 42 to find a coloring degree (YI(0)) before aged and a change in the coloring degree (ΔY).

[2] = Photochromic properties of cast polymer (2 mm thick) under xenon lamp irradiation for 120 seconds; type: physicochemical; conditions: single chromene compound 0.04% by weight in polymer, 20° C., Table 5; for Color density ε(120)-ε(0): 120 seconds
Protocol: 0.04% by weight of the chromene compound obtained in Example 1 was added to 70 parts of 4G, 15 parts of 3G, 10 parts of GMA, 5 parts of HEMA and 1 part of perbutyl ND, and was mixed together to a sufficient degree. The mixture solution was poured into a mold constituted by a glass plate and a gasket of an ethylene/vinyl acetate copolymer, and was cast-polymerized. By using an air furnace, the polymerization was conducted in a manner that the temperature was gradually raised from 30° C. to 90° C. over a period of 18 hours, and was held at 90° C. for 2 hours. After the polymerization, the polymer was taken out from the glass mold.
By using a xenon lamp, L-2480 (300 W) SHL-100, manufactured by Hamamatsu Photonics Co., the obtained polymer (2 mm thick) was irradiated with a beam of an intensity of 365 nm=2.4 mW/cm^2 and 245 nm=24 μW/cm^2 on the surface of the polymer for 120 seconds through an aero-mass filter (manufactured by Corning Co.) at 20° C.±1° C. to develop color and to measure the photochromic properties which were expressed in the following manner.
1 Maximum absorption wavelength (λmax): λmax of the polymer after it has developed color was found by using a spectrophotometer (instantaneous multi-channel photo-detector, MCPD1000) manufactured by Otsuka Denshi Kogyo Co.
2 Initial color ( ε(0)): Absorbency of the polymer in a non-irradiated state at a wavelength same as the maximum absorption wavelength of when it is irradiated with light.
3 Color density (-)=ε(120)-ε(0). ε(120): Absorbency of the polymer at a maximum absorption wavelength after it was irradiated for 120 seconds under the above-mentioned conditions.
4 Color-developing sensitivity (-/min.)=Saturated color density/xenon irradiation time.
Rate of increase in the color density per a unit time until the color density is saturated.
5 Color fading rate [t1/2 (min.)]=time required until the absorbency of the polymer drops down to one-half of [ε(120)-ε(0)] after irradiated for 120 seconds.
as §1, §2, §3, §4

Compound	Change in the coloring degree ΔYI [1]	Light resistance (durability) [1]	Fading rate t1/2 [2]	Maximum absorption wavelength λmax [2]	Color density ε(120)-ε(0) [2]
CC(C)c1cc2ccccc2c2c1C=CC1(O2)C2CCCC1CCC2 (stereo not shown) [Compound 21]	2.0	97%	1.0 min	449 nm	0.5
CC(C)(C)c1cc2ccccc2c2c1C=CC1(O2)C2(Cl)CCCC1(Cl)CCC2 (stereo not shown) [Compound 22]	3.0	80%	1.4 min	444 nm	0.5
CCC(C)c1cc2ccccc2c2c1C=CC1(O2)C2CCCC1CCC2 (stereo not shown) [Compound 23]	2.0	92%	1.0 min	450 nm	0.5
CC(C)(C)c1cc2ccccc2c2c1C=CC1(O2)C2CC3CC(C2)CC1C3 (stereo not shown) [Compound 24]	5.0	95%	1.8 min	445 nm	0.6
CC(C)c1cc2ccccc2c2c1C=CC1(O2)C2CC3CC(C2)CC1C3 (stereo not shown) [Compound 25]	2.2	92%	2.0 min	454 nm	0.7
COc1ccc(C2(c3ccc(OC)cc3)C=Cc3c(C)cc4ccccc4c3O2)cc1 [Compound 26]	2.3	99%	6.0 min	504 nm	1.2
COc1ccc(C2(c3ccc(OC)c(F)c3)C=Cc3c(C)cc4ccccc4c3O2)cc1F [Compound 27]	2.3	99%	7.3 min	496 nm	1.1
CCc1cc2ccccc2c2c1C=CC(c1ccc(OC)cc1)(c1ccc(OC)cc1)O2 [Compound 28]	2.5	96%	5.5 min	502 nm	1.0
CCOc1ccc(C2(c3ccc(OCC)cc3)C=Cc3c(C)cc4ccccc4c3O2)cc1 [Compound 29]	2.4	98%	5.8 min	504 nm	1.2
COc1ccc(C2(c3ccc(OC(F)(F)F)cc3)C=Cc3c(C)cc4ccccc4c3O2)cc1 (stereo not shown) [Compound 30]	2.4	97%	8.5 min	490 nm	1.1
COc1ccc(C2(c3ccco3)C=Cc3c(C)cc4ccccc4c3O2)cc1F (stereo not shown) [Compound 31]	3.0	95%	7.0 min	506 nm	1.1
COc1ccc(C2(c3cccs3)C=Cc3c(C)cc4ccccc4c3O2)cc1 (stereo not shown) [Compound 32]	2.7	96%	6.5 min	512 nm	1.0
COc1ccc(C2(c3ccc(OC)cc3)C=Cc3c(C)cc4c(OC)cccc4c3O2)cc1 [Compound 33]	2.2	98%	5.5 min	520 nm	1.3
COc1ccc(C2(c3ccc(OC)c(F)c3)C=Cc3c(C)cc4ccccc4c3O2)cc1 (stereo not shown) [Compound 34]	2.4	97%	6.5 min	502 nm	1.1
CCCc1cc2ccccc2c2c1C=CC(c1ccc(OC)cc1)(c1ccc(OC)cc1)O2 [Compound 35]	2.3	98%	4.5 min	498 nm	0.9
COc1ccc(C2(c3ccc(OC)cc3)C=Cc3c(C)cc4ccc(C)cc4c3O2)cc1 [Compound 36]	2.3	98%	6.0 min	510 nm	1.1
COc1ccc(C2(c3ccc(OC)cc3)C=Cc3c(C)cc4cc(-c5ccccc5)ccc4c3O2)cc1 [Compound 37]	2.5	97%	7.2 min	512 nm	1.3
CCCCc1cc2cccc(Br)c2c2c1C=CC(c1ccc(OC)c(F)c1)(c1ccc(OC)c(F)c1)O2 [Compound 38]	2.8	96%	4.8 min	482 nm	0.8
CCOc1ccc(C2(c3ccc(OC)cc3)C=Cc3c(CC)cc4c(Cc5ccccc5)cccc4c3O2)cc1 (stereo not shown) [Compound 39]	2.5	96%	5.8 min	524 nm	1.0
CCCc1cc2c(CC)cc(OCC)cc2c2c1C=CC(c1ccc(OC)cc1)(c1cccs1)O2 (stereo not shown) [Compound 40]	2.7	96%	5.2 min	524 nm	0.9
